Read-outs that look alike come from different tables or passages of the source.
Legend:
[1] = target: c-Raf (Homo sapiens, UniProt P04049); assay: Luciferase-coupled chemiluminescence kinase assay (ATP consumption), c-Raf; assay type: biochemical
How it was run: (§1)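 Pre-incub. kinase […] + cpd, 30 min RT (20 mM Tris pH 7.5, 10 mM MgCl2, 0.03% TX-100, 1 mM DTT). Start w/ ATP, 3 h ambient. Luciferase-luciferin mix added and luminescence read. Total ATP use 25-60%. IC50 derived.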

[2] = target: B-Raf (Homo sapiens, UniProt P15056); assay: Luciferase-coupled chemiluminescence kinase assay (ATP consumption), B-Raf; assay type: biochemical
Sequence of B-Raf (P15056 whole entry): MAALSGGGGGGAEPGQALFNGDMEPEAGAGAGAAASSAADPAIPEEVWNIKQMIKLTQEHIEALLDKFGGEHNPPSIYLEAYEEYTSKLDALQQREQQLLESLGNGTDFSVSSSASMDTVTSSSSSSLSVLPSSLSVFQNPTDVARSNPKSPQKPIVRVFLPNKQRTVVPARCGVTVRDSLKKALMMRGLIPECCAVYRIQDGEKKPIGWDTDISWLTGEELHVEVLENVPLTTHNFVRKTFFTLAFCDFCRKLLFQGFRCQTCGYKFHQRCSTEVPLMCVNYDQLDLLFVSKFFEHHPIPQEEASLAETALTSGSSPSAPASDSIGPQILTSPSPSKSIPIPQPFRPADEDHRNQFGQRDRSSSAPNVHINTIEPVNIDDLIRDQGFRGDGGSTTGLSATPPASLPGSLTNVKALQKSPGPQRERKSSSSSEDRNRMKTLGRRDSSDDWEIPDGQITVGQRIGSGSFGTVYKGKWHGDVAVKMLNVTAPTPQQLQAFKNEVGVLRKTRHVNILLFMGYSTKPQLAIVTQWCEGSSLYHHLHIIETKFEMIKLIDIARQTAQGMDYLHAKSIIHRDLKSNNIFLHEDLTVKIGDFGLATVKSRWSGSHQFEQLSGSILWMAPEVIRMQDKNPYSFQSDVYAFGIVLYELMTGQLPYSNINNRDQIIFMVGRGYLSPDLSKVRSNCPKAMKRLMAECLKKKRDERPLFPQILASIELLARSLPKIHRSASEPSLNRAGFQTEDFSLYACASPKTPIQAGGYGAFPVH
How it was run: as §1

[3] = read-out: cRaf-1 (inhibition indicated as IC50)
[4] = read-out: bRaf (inhibition indicated as IC50)

Sequence of c-Raf (P04049 whole entry): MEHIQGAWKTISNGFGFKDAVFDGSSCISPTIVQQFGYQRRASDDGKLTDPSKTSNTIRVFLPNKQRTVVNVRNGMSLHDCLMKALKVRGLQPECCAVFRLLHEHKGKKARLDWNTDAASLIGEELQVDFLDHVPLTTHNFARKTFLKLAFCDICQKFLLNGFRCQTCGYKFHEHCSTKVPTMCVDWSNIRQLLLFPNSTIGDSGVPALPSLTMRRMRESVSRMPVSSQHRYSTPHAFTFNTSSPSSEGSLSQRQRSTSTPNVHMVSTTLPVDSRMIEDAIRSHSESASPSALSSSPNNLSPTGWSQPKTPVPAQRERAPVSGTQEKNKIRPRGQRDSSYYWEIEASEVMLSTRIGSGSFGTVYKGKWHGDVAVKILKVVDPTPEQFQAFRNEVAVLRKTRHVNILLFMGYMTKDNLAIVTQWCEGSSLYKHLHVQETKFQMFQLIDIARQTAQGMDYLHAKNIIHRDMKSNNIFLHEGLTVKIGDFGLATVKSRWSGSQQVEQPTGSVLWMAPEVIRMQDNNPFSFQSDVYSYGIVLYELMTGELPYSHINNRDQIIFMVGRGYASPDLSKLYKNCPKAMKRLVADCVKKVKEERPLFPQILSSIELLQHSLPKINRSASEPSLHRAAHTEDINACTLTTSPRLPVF

Structure (SMILES)	IC50 [1, 3]	IC50 [2, 4]	IC50 ([1]; read-out: cRaf-1 IC50)	IC50 ([2]; read-out: bRaf IC50)
COC(=O)Nc1nc2cc(C3(O)c4ccccc4C(=O)N3c3cc(F)cc(F)c3)ccc2[nH]1 (stereo not drawn) [Entry 156, methyl {5-[2-(3,5-difluorophenyl)-1-hydroxy-3-oxo-2,3-dihydro-1H-isoindol-1-yl]-1H-benzimidazol-2-yl}carbamate]			100 to 1000 nM	100 to 1000 nM
COC(=O)Nc1nc2cc(C3(O)c4ccccc4C(=O)N3c3cccc(C(N)=O)c3)ccc2[nH]1 (stereo not drawn) [Entry 217, methyl (5-{2-[3-(aminocarbonyl)phenyl]-1-hydroxy-3-oxo-2,3-dihydro-1H-isoindol-1-yl}-1H-benzimidazol-2-yl)carbamate]			100 to 1000 nM	< 100 nM
COC(=O)Nc1nc2cc(C3(O)c4ccccc4C(=O)N3[C@@H](C)c3ccccc3)ccc2[nH]1 (stereo partly drawn) [Entry 105, methyl (5-{1-hydroxy-3-oxo-2-[(1S)-1-phenylethyl]-2,3-dihydro-1H-isoindol-1-yl}-1H-benzimidazol-2-yl)carbamate]			1000 to 10000 nM	1000 to 10000 nM
COC(=O)Nc1nc2cc(C3(O)c4ccccc4C(=O)N3C3CCCCC3)ccc2[nH]1 (stereo not drawn) [Entry 167, methyl [5-(2-cyclohexyl-1-hydroxy-3-oxo-2,3-dihydro-1H-isoindol-1-yl)-1H-benzimidazol-2-yl]carbamate]			< 100 nM	< 100 nM
COC(=O)Nc1nc2cc(C3(O)c4ccccc4C(=O)N3c3cc(Cl)cc(I)c3C)ccc2[nH]1 (stereo not drawn) [Entry 358, methyl {5-[2-(5-chloro-3-iodo-2-methylphenyl)-1-hydroxy-3-oxo-2,3-dihydro-1H-isoindol-1-yl]-1H-benzimidazol-2-yl}carbamate]	100 to 1000 nM	100 to 1000 nM		
CNc1nc2cc(C3(O)c4ccccc4C(=O)N3Cc3ccccc3)ccc2[nH]1 (stereo not drawn) [Entry 84, 3-hydroxy-3-[2-(methylamino)-1H-benzimidazol-5-yl]-2-(phenylmethyl)-2,3-dihydro-1H-isoindol-1-one]			1000 to 10000 nM	1000 to 10000 nM
O=C1c2ccccc2C(O)(c2ccc3[nH]c(Nc4nccs4)nc3c2)N1c1cccc(Cl)c1F (stereo not drawn) [Entry 356, 2-(3-chloro-2-fluorophenyl)-3-hydroxy-3-[2-(1,3-thiazol-2-ylamino)-1H-benzimidazol-5-yl]-2,3-dihydro-1H-isoindol-1-one]	< 100 nM	< 100 nM		
COC(=O)Nc1nc2cc(C3(O)c4ccccc4C(=O)N3c3cccc(OCc4ccccc4)c3)ccc2[nH]1 (stereo not drawn) [Entry 221, methyl [5-(1-hydroxy-3-oxo-2-{3-[(phenylmethyl)oxy]phenyl}-2,3-dihydro-1H-isoindol-1-yl)-1H-benzimidazol-2-yl]carbamate]			< 100 nM	100 to 1000 nM
CCNC(=O)Nc1nc2ccc(C3(O)c4ccccc4C(=O)N3c3ccc(F)cc3)cc2[nH]1 (stereo not drawn) [Entry 260, N-ethyl-N′-{6-[2-(4-fluorophenyl)-1-hydroxy-3-oxo-2,3-dihydro-1H-isoindol-1-yl]-1H-benzimidazol-2-yl}urea]			< 100 nM	< 100 nM
Cc1cccc(N2C(=O)c3ccccc3C2(O)c2ccc3nc(Nc4cnccn4)[nH]c3c2)c1 (stereo not drawn) [Entry 388, 3-hydroxy-2-(3-methylphenyl)-3-[2-(pyrazin-2-ylamino)-1H-benzimidazol-6-yl]-2,3-dihydro-1H-isoindol-1-one]	< 100 nM	< 100 nM		
O=C1COc2ccc(C3(O)c4ccccc4C(=O)N3c3ccc(F)c(F)c3)cc2N1 (stereo not drawn) [Entry 58, 6-[2-(3,4-difluorophenyl)-1-hydroxy-3-oxo-2,3-dihydro-1H-isoindol-1-yl]-2H-1,4-benzoxazin-3(4H)-one]			1000 to 10000 nM	1000 to 10000 nM
COc1ccc(Cl)cc1N1C(=O)c2ccccc2C1(O)c1ccc2c(c1)NC(=O)CO2 (stereo not drawn) [Entry 63, 6-{2-[5-chloro-2-(methyloxy)phenyl]-1-hydroxy-3-oxo-2,3-dihydro-1H-isoindol-1-yl}-2H-1,4-benzoxazin-3(4H)-one]			≥ 10000 nM	1000 to 10000 nM
Cc1ccc(Cl)cc1N1C(=O)c2ccccc2C1(O)c1ccc2c(c1)NC(=O)CO2 (stereo not drawn) [Entry 74, 6-[2-(5-chloro-2-methylphenyl)-1-hydroxy-3-oxo-2,3-dihydro-1H-isoindol-1-yl]-2H-1,4-benzoxazin-3(4H)-one]			< 100 nM	< 100 nM
CC(C)OC(=O)Nc1nc2ccc(C3(O)c4ccccc4C(=O)N3c3cccc(Cl)c3F)cc2[nH]1 (stereo not drawn) [Entry 333, 1-methylethyl {6-[2-(3-chloro-2-fluorophenyl)-1-hydroxy-3-oxo-2,3-dihydro-1H-isoindol-1-yl]-1H-benzimidazol-2-yl}carbamate]	< 100 nM	< 100 nM		

Next, values leading:

IC50 [1, 3]	IC50 [2, 4]	IC50 ([1]; read-out: cRaf-1 IC50)	IC50 ([2]; read-out: bRaf IC50)	Structure (SMILES)
< 100 nM	< 100 nM			Cc1ccc(Cl)cc1N1C(=O)c2ccccc2C1(O)c1ccc2nc(Nc3ncccn3)[nH]c2c1 (stereo not drawn) [Entry 375, 2-(5-chloro-2-methylphenyl)-3-hydroxy-3-[2-(pyrimidin-2-ylamino)-1H-benzimidazol-6-yl]-2,3-dihydro-1H-isoindol-1-one]
< 100 nM	< 100 nM			C#Cc1cccc(N2C(=O)c3cccc(F)c3C2(O)c2ccc3[nH]c(NC(=O)OC)nc3c2)c1F (stereo not drawn) [Entry 369, methyl {5-[2-(3-ethynyl-2-fluorophenyl)-7-fluoro-1-hydroxy-3-oxo-2,3-dihydro-1H-isoindol-1-yl]-1H-benzimidazol-2-yl}carbamate]
< 100 nM	< 100 nM			COC(=O)Nc1nc2cc(C3(O)c4ccccc4C(=O)N3c3cc(C)ccc3C)ccc2[nH]1 (stereo not drawn) [Entry 365, methyl {5-[2-(2,5-dimethylphenyl)-1-hydroxy-3-oxo-2,3-dihydro-1H-isoindol-1-yl]-1H-benzimidazol-2-yl}carbamate]
		< 100 nM	< 100 nM	COC(=O)Nc1nc2cc(C3(O)c4ccccc4C(=O)N3c3cccc(OC)c3)ccc2[nH]1 (stereo not drawn) [Entry 137, methyl (5-{1-hydroxy-2-[3-(methyloxy)phenyl]-3-oxo-2,3-dihydro-1H-isoindol-1-yl}-1H-benzimidazol-2-yl)carbamate]
		≥ 10000 nM	≥ 10000 nM	O=C1COc2ccc(C3(O)c4ccccc4C(=O)N3Cc3ccccc3C(F)(F)F)cc2N1 (stereo not drawn) [Entry 50, 6-(1-hydroxy-3-oxo-2-{[2-(trifluoromethyl)phenyl]methyl}-2,3-dihydro-1H-isoindol-1-yl)-2H-1,4-benzoxazin-3(4H)-one]
		< 100 nM	< 100 nM	O=C(Nc1nc2cc(C3(O)c4ccccc4C(=O)N3Cc3ccccc3)ccc2[nH]1)OCC1CCCO1 (stereo not drawn) [Entry 186, tetrahydrofuran-2-ylmethyl {5-[1-hydroxy-3-oxo-2-(phenylmethyl)-2,3-dihydro-1H-isoindol-1-yl]-1H-benzimidazol-2-yl}carbamate]
		< 100 nM	< 100 nM	O=C(Nc1nc2cc(C3(O)c4ccccc4C(=O)N3Cc3ccccc3)ccc2[nH]1)OCC1CC1 (stereo not drawn) [Entry 187, cyclopropylmethyl {5-[1-hydroxy-3-oxo-2-(phenylmethyl)-2,3-dihydro-1H-isoindol-1-yl]-1H-benzimidazol-2-yl}carbamate]
		< 100 nM	< 100 nM	O=C(Nc1nc2cc(C3(O)c4ccccc4C(=O)N3Cc3ccccc3)ccc2[nH]1)OCCF (stereo not drawn) [Entry 126, 2-fluoroethyl {5-[1-hydroxy-3-oxo-2-(phenylmethyl)-2,3-dihydro-1H-isoindol-1-yl]-1H-benzimidazol-2-yl}carbamate]
		< 100 nM	< 100 nM	COC(=O)Nc1nc2cc(C3(O)c4ccccc4C(=O)N3C(C)c3ccc(Cl)s3)ccc2[nH]1 (stereo not drawn) [Entry 202, methyl (5-{2-[1-(5-chloro-2-thienyl)ethyl]-1-hydroxy-3-oxo-2,3-dihydro-1H-isoindol-1-yl}-1H-benzimidazol-2-yl)carbamate]
< 100 nM	< 100 nM			CCOC(=O)Nc1nc2ccc(C3(O)c4ccccc4C(=O)N3c3cccc(Cl)c3F)cc2[nH]1 (stereo not drawn) [Entry 340, ethyl {6-[2-(3-chloro-2-fluorophenyl)-1-hydroxy-3-oxo-2,3-dihydro-1H-isoindol-1-yl]-1H-benzimidazol-2-yl}carbamate]
< 100 nM	< 100 nM			O=C(CCCN1CCCCC1)Nc1nc2cc(C3(O)c4ccccc4C(=O)N3c3ccc(F)cc3)ccc2[nH]1 (stereo not drawn) [Entry 287, N-{5-[2-(4-fluorophenyl)-1-hydroxy-3-oxo-2,3-dihydro-1H-isoindol-1-yl]-1H-benzimidazol-2-yl}-4-piperidin-1-ylbutanamide]
		< 100 nM	< 100 nM	COC(=O)Nc1nc2ccc(C3(O)c4ccccc4C(=O)N3Cc3cccc(F)c3)cc2[nH]1 (stereo not drawn) [Entry 114, methyl (6-{2-[(3-fluorophenyl)methyl]-1-hydroxy-3-oxo-2,3-dihydro-1H-isoindol-1-yl}-1H-benzimidazol-2-yl)carbamate]
		< 100 nM	< 100 nM	C#Cc1cc(N2C(=O)c3ccccc3C2(O)c2ccc3[nH]c(NC(=O)OC)nc3c2)ccc1F (stereo not drawn) [Entry 226, methyl {5-[2-(3-ethynyl-4-fluorophenyl)-1-hydroxy-3-oxo-2,3-dihydro-1H-isoindol-1-yl]-1H-benzimidazol-2-yl}carbamate]
		< 100 nM	< 100 nM	COC(=O)Nc1nc2cc(C3(O)c4ccccc4C(=O)N3C(C)c3cc(Cl)cs3)ccc2[nH]1 (stereo not drawn) [Entry 233, methyl (5-{2-[1-(4-chloro-2-thienyl)ethyl]-1-hydroxy-3-oxo-2,3-dihydro-1H-isoindol-1-yl}-1H-benzimidazol-2-yl)carbamate]
		1000 to 10000 nM	1000 to 10000 nM	O=C1COc2ccc(C3(O)c4ccccc4C(=O)N3Cc3cccc(I)c3)cc2N1 (stereo not drawn) [Entry 55, 6-{1-hydroxy-2-[(3-iodophenyl)methyl]-3-oxo-2,3-dihydro-1H-isoindol-1-yl}-2H-1,4-benzoxazin-3(4H)-one]
		< 100 nM	< 100 nM	COC(=O)Nc1nc2cc(C3(O)c4ccccc4C(=O)N3c3ccc(Cl)c(C)c3)ccc2[nH]1 (stereo not drawn) [Entry 180, methyl {5-[2-(4-chloro-3-methylphenyl)-1-hydroxy-3-oxo-2,3-dihydro-1H-isoindol-1-yl]-1H-benzimidazol-2-yl}carbamate]

— patent US7846959B2, “Raf modulators and methods of use” (Exelixis, Inc., priority 2004, dated 2010)
